Measurements taken from ChEMBL document CHEMBL1131625, “Neurosteroid analogues. 6. The synthesis and GABAA receptor pharmacology of enantiomers of dehydroepiandrosterone sulfate, pregnenolone sulfate, and (3alpha,5beta)-3-hydroxypregnan-20-one sulfate” (J Med Chem, 1998).

Legend:
Rattus norvegicus [1] = organism: Rattus norvegicus; assay: Inhibition of GABA-mediated currents by compound; assay type: functional
[2] = target: GABA-A receptor; anion channel; assay: Inhibitory activity against Gamma-aminobutyric acid A (GABA-A) receptor of rat hippocampal neurons; assay type: tissue-based, Hippocampus
Rattus norvegicus [3] = organism: Rattus norvegicus; assay: The Non-competitive block of GABA-mediated currents in cultured neurons from rat ventral mesencephalon; assay type: functional

Question: With CC(=O)[C@@H]1CC[C@H]2[C@@H]3CC[C@H]4C[C@@H](OS(=O)(=O)O)CC[C@@]4(C)[C@H]3CC[C@@]12C as the molecule, how does the Ki (Rattus norvegicus [1]) read?
Answer: The Ki was 47 µM.

Question: For CC(=O)[C@H]1CC[C@H]2[C@@H]3CC=C4C[C@@H](OS(=O)(=O)O)CC[C@]4(C)[C@H]3CC[C@]12C, which IC50 [2] is on record?
Answer: Its IC50 is 82 µM.

Question: How did the IC50 [2] turn out when C[C@]12CC[C@H](OS(=O)(=O)O)CC1=CC[C@@H]1[C@@H]2CC[C@]2(C)C(=O)CC[C@@H]12 was run?
Answer: Its IC50 is 11 µM.

Question: What about the Ki (Rattus norvegicus [3]) of the same molecule?
Answer: The Ki was 13 µM.

Question: CC(=O)[C@@H]1CC[C@@H]2[C@H]3CC=C4C[C@H](OS(=O)(=O)O)CC[C@@]4(C)[C@@H]3CC[C@]21C was tested. Which IC50 [2] did it give?
Answer: Its IC50 is 76 µM.

Question: For C[C@@]12CC[C@@H]3[C@H](CC=C4C[C@H](OS(=O)(=O)O)CC[C@]43C)[C@H]1CCC2=O, which IC50 [2] is on record?
Answer: Its IC50 is 80 µM.

Question: And the Ki (Rattus norvegicus [3])?
Answer: The Ki was 81 µM.

Question: How did the IC50 [2] turn out when CC(=O)[C@H]1CC[C@H]2[C@@H]3CC[C@@H]4C[C@H](OS(=O)(=O)O)CC[C@]4(C)[C@H]3CC[C@]12C was run?
Answer: Its IC50 is 39 µM.

Question: And the Ki (Rattus norvegicus [1])?
Answer: The Ki was 39 µM.
